The text below walks through data of patent US20240287070A1, “FUSED HETEROCYCLIC DERIVATIVES” (Janssen Sciences Ireland Unlimited Company, priority 2021, published 2024).

Series [1] is described as follows: Human liver microsome stability. Conditions: pooled human liver microsomes 0.5 mg/mL, 1 μM compound, NADPH 1 mM, 37° C., 0-60 min. The class given is in vitro ADME. In short, it runs like this: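 Half-life came from elimination rate constant (negative slope of ln compound/internal standard area ratio over time), measured by cassette LC-MS after acetonitrile quench. Human liver microsome reactions, one replicate per compound, were initiated with NADPH (1 mM final) and sampled at six points up to 60 min.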

Series [2] deals with HBV (HepG2.117 cell line, inducibly HBV producing). As to the kind of experiment: Anti-HBV activity, intracellular HBV DNA by real-time PCR in HepG2.117 cell line. The class given is cell-based, hepatitis B virus. Conditions: HepG2.117 cells, 3 days of treatment. In short, it runs like this:
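Readout is intracellular HBV DNA, measured by real-time PCR with HBV-specific primers and probe after 3 days of exposure to serial compound dilutions. Cells are the stable HepG2.117 line, where HBV replication is induced in the absence of doxycycline.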
(In general: Real-time PCR tracks product formation cycle by cycle.)

The test system of series [3] is HepG2 or HepG2.117 cells. The series is described as follows: Cytotoxicity, ATPlite Luminescence Assay. The series is classed as cell-based, human. Conditions: 3-days incubation unless marked with *. The method in brief:
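Incubate with compound for 3 or 4 days, then assess cell viability via ATPlite luminescence.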
For orientation: ATP-based viability assays read luminescence as a measure of living cells.

A word on the EC50: it is the concentration at which the effect is half-maximal. Broadly, the CC50 is the concentration that lowers cell viability or growth by half. A high value points to better tolerance by the cells. For `CC(c1cnc(NC2CC2)nc1)N1C[C@@H](C)n2nc3c(c2C1=O)CN(C(=O)c1ccc(Cl)c(Cl)c1)[C@H](C)C3` (single isomer, unassigned) [Compound 37B, (3R,7R)-9-((S*)-1-(2-(cyclopropylamino)pyrimidin-5-yl)ethyl)-2-(3,4-dichlorobenzoyl)-3,7-dimethyl-1,2,3,4,8,9-hexahydropyrido[4′,3′:3,4]pyrazolo[1,5-a]pyrazin-10(7H)-one], the “HLM Metabolism t1/2” value in series [1] turned out to be 0.892 h. This molecule also displayed an EC50 in series [2] of 0.041 µM. The molecule further displayed a cytotoxic concentration (CC50) in series [3] of more than 50 µM.
On the same counts, the results for `CC(c1cnc(N2CCOC[C@@H]2C)nc1)N1C[C@@H](C)n2nc3c(c2C1=O)CN(C(=O)c1ccc(Cl)c(C(F)(F)F)c1)[C@H](C)C3` (single isomer, unassigned) [Compound 38B, (3R,7R)-2-(4-chloro-3-(trifluoromethyl)benzoyl)-3,7-dimethyl-9-((S*)-1-(2-((S)-3-methylmorpholino)pyrimidin-5-yl)ethyl)-1,2,3,4,8,9-hexahydropyrido[4′,3′:3,4]pyrazolo[1,5-a]pyrazin-10(7H)-one] are 0.642 h, 0.012 µM and 28.4 µM.
On to `CC(c1ncccn1)N1C[C@@H](C)n2nc3c(c2C1=O)CN(C(=O)c1ccc(Cl)c(Cl)c1)[C@H](C)C3` (single isomer, unassigned) [Compound 39B, (3R,7R)-2-(3,4-dichlorobenzoyl)-3,7-dimethyl-9-((S*)-1-(pyrimidin-2-yl)ethyl)-1,2,3,4,8,9-hexahydropyrido[4′,3′:3,4]pyrazolo[1,5-a]pyrazin-10(7H)-one], for which the “HLM Metabolism t1/2” value in series [1] was more than 3 h. Also, in series [2], the EC50 worked out at 0.035 µM. Moreover, the 50% cytotoxic concentration (CC50) in series [3] was more than 25 µM.
Taken in the same sequence, the figures for `CC(c1ncc(C(F)(F)F)cn1)N1C[C@@H](C)n2nc3c(c2C1=O)CN(C(=O)c1ccc(Cl)c(Cl)c1)[C@H](C)C3` (single isomer, unassigned) [Compound 40B, (3R,7R)-2-(3,4-dichlorobenzoyl)-3,7-dimethyl-9-((S*)-1-(5-(trifluoromethyl)pyrimidin-2-yl)ethyl)-1,2,3,4,8,9-hexahydropyrido[4′,3′:3,4]pyrazolo[1,5-a]pyrazin-10(7H)-one] were more than 3 h, 0.26 µM and 22.9 µM.
Take `CC(c1cnc(C(C)(C)O)cn1)N1C[C@@H](C)n2nc3c(c2C1=O)CN(C(=O)c1ccc(Cl)c(C(F)(F)F)c1)[C@H](C)C3` (single isomer, unassigned) [Compound 41B, (3R,7R)-2-(4-chloro-3-(trifluoromethyl)benzoyl)-9-((S*)-1-(5-(2-hydroxypropan-2-yl)pyrazin-2-yl)ethyl)-3,7-dimethyl-1,2,3,4,8,9-hexahydropyrido[4′,3′:3,4]pyrazolo[1,5-a]pyrazin-10(7H)-one]: the “HLM Metabolism t1/2” value in series [1] stood at 1.65 h. Moreover, the midpoint of the response in series [2], the EC50, lay at 0.014 µM. In series [3], this molecule had a CC50 of more than 50 µM.
Regarding `CC(c1ccn(CC(F)(F)F)n1)N1C[C@@H](C)n2nc3c(c2C1=O)CN(C(=O)c1ccc(Cl)c(C#N)c1)[C@H](C)C3` (single isomer, unassigned) [Compound 42A, 2-chloro-5-((3R,7R)-3,7-Dimethyl-10-oxo-9-((R*)-1-(1-(2,2,2-trifluoroethyl)-1H-pyrazol-3-yl)ethyl)-1,2,3,4,7,8,9,10-octahydropyrido[4′,3′:3,4]pyrazolo[1,5-a]pyrazine-2-carbonyl)benzonitrile], in series [1], the “HLM Metabolism t1/2” value is more than 3 h. The molecule further gave an EC50 in series [2] of 0.12 µM. Besides, in series [3], the CC50 is more than 50 µM.
With `Cc1nnc(C(C)N2C[C@@H](C)n3nc4c(c3C2=O)CN(C(=O)c2ccc(Cl)c(Cl)c2)[C@H](C)C4)o1` (single isomer, unassigned) [Compound 43B, (3R,7R)-2-(3,4-dichlorobenzoyl)-3,7-dimethyl-9-((S*)-1-(5-methyl-1,3,4-oxadiazol-2-yl)ethyl)-1,2,3,4,8,9-hexahydropyrido[4′,3′:3,4]pyrazolo[1,5-a]pyrazin-10(7H)-one], the “HLM Metabolism t1/2” value in series [1] was more than 3 h. For the same molecule, a half-maximal response in series [2] (EC50) required 0.065 µM. The half-maximal cytotoxic concentration (CC50) in series [3] was more than 50 µM.
Turning to `CC(c1nnc(C2CC2)o1)N1C[C@@H](C)n2nc3c(c2C1=O)CN(C(=O)c1ccc(Cl)c(Cl)c1)[C@H](C)C3` (single isomer, unassigned) [Compound 44B, (3R,7R)-9-((S*)-1-(5-cyclopropyl-1,3,4-oxadiazol-2-yl)ethyl)-2-(3,4-dichlorobenzoyl)-3,7-dimethyl-1,2,3,4,8,9-hexahydropyrido[4′,3′:3,4]pyrazolo[1,5-a]pyrazin-10(7H)-one], the “HLM Metabolism t1/2” value in series [1] was 2.22 h. Further, in series [2], the EC50 is 0.065 µM. The molecule further displayed a CC50 in series [3] of more than 50 µM.
As for `CC(c1cc(F)c(=O)n(C2CC2)c1)N1C[C@@H](C)n2nc3c(c2C1=O)CN(C(=O)c1ccc(Cl)c(Cl)c1)[C@H](C)C3` (single isomer, unassigned) [Compound 46B, (3R,7R)-9-((S*)-1-(1-cyclopropyl-5-fluoro-6-oxo-1,6-dihydropyridin-3-yl)ethyl)-2-(3,4-dichlorobenzoyl)-3,7-dimethyl-1,2,3,4,8,9-hexahydropyrido[4′,3′:3,4]pyrazolo[1,5-a]pyrazin-10(7H)-one], in series [1], the “HLM Metabolism t1/2” value was more than 3 h. In series [2], this molecule returned a concentration for a half-maximal effect (EC50) of 0.031 µM. The molecule further gave a CC50 in series [3] of more than 50 µM.
With `CC(c1ccn(C(C)C)c(=O)c1)N1C[C@@H](C)n2nc3c(c2C1=O)CN(C(=O)c1ccc(Cl)c(C(F)(F)F)c1)[C@H](C)C3` (single isomer, unassigned) [Compound 47B, (3R,7R)-2-(4-chloro-3-(trifluoromethyl)benzoyl)-9-((S*)-1-(1-isopropyl-2-oxo-1,2-dihydropyridin-4-yl)ethyl)-3,7-dimethyl-1,2,3,4,8,9-hexahydropyrido[4′,3′:3,4]pyrazolo[1,5-a]pyrazin-10(7H)-one], the “HLM Metabolism t1/2” value in series [1] was determined as 2.4 h. For the same molecule, the EC50 in series [2] came to 0.016 µM. The CC50 in series [3] was more than 50 µM.
`CC(C)Oc1cc(C(C)N2C[C@@H](C)n3nc4c(c3C2=O)CN(C(=O)c2ccc(Cl)c(C(F)(F)F)c2)[C@H](C)C4)ccn1` (single isomer, unassigned) [Compound 48B, (3R,7R)-2-(4-chloro-3-(trifluoromethyl)benzoyl)-9-((S*)-1-(2-isopropoxypyridin-4-yl)ethyl)-3,7-dimethyl-1,2,3,4,8,9-hexahydropyrido[4′,3′:3,4]pyrazolo[1,5-a]pyrazin-10(7H)-one]: in series [1], the “HLM Metabolism t1/2” value was 1.66 h. In addition, the concentration giving a half-maximal response (EC50) in series [2] turned out to be 0.028 µM. Besides, the CC50 in series [3] worked out at 11.5 µM.
For `CC(c1ccn(C(F)F)c(=O)c1)N1C[C@@H](C)n2nc3c(c2C1=O)CN(C(=O)c1ccc(Cl)c(C(F)(F)F)c1)[C@H](C)C3` (single isomer, unassigned) [Compound 49B, (3R,7R)-2-(4-chloro-3-(trifluoromethyl)benzoyl)-9-((S*)-1-(1-(difluoromethyl)-2-oxo-1,2-dihydropyridin-4-yl)ethyl)-3,7-dimethyl-1,2,3,4,8,9-hexahydropyrido [4′,3′:3,4]pyrazolo[1,5-a]pyrazin-10(7H)-one], the “HLM Metabolism t1/2” value in series [1] is more than 3 h. Further, in series [2], the half-maximal effective concentration (EC50) turned out to be 0.013 µM. This molecule had a CC50 in series [3] of more than 50 µM.
On the same counts, the results for `CC(c1ccnc(OC(F)F)c1)N1C[C@@H](C)n2nc3c(c2C1=O)CN(C(=O)c1ccc(Cl)c(C(F)(F)F)c1)[C@H](C)C3` (single isomer, unassigned) [Compound 50B, (3R,7R)-2-(4-chloro-3-(trifluoromethyl)benzoyl)-9-((S*)-1-(2-(difluoromethoxy)pyridin-4-yl)ethyl)-3,7-dimethyl-1,2,3,4,8,9-hexahydropyrido[4′,3′:3,4]pyrazolo[1,5-a]pyrazin-10(7H)-one] are more than 3 h, 0.024 µM and 10.2 µM.
On to `CC(c1ccn(CC(F)(F)F)c(=O)c1)N1C[C@@H](C)n2nc3c(c2C1=O)CN(C(=O)c1ccc(Cl)c(Cl)c1)[C@H](C)C3` (single isomer, unassigned) [Compound 51B, (3R,7R)-2-(3,4-dichlorobenzoyl)-3,7-dimethyl-9-((S*)-1-(2-oxo-1-(2,2,2-trifluoroethyl)-1,2-dihydropyridin-4-yl)ethyl)-1,2,3,4,8,9-hexahydropyrido[4′,3′:3,4]pyrazolo[1,5-a]pyrazin-10(7H)-one], for which the “HLM Metabolism t1/2” value in series [1] is more than 3 h. Also, in series [2], the response was half-maximal at 0.028 µM (EC50). Further, the CC50 in series [3] was more than 50 µM.
Taken in the same sequence, the figures for `CC(c1cnn(C)c(=O)c1)N1C[C@@H](C)n2nc3c(c2C1=O)CN(C(=O)c1ccc(Cl)c(C(F)(F)F)c1)[C@H](C)C3` (single isomer, unassigned) [Compound 52B, (3R,7R)-2-(4-chloro-3-(trifluoromethyl)benzoyl)-3,7-dimethyl-9-((S*)-1-(1-methyl-6-oxo-1,6-dihydropyridazin-4-yl)ethyl)-1,2,3,4,8,9-hexahydropyrido [4′,3′:3,4]pyrazolo[1,5-a]pyrazin-10(7H)-one] were more than 3 h, 0.016 µM and more than 50 µM.
Consider `CC(c1cnn(C(C)C)c(=O)c1)N1C[C@@H](C)n2nc3c(c2C1=O)CN(C(=O)c1ccc(Cl)c(C(F)(F)F)c1)[C@H](C)C3` (single isomer, unassigned) [Compound 53B, (3R,7R)-2-(4-chloro-3-(trifluoromethyl)benzoyl)-9-((S*)-1-(1-isopropyl-6-oxo-1,6-dihydropyridazin-4-yl)ethyl)-3,7-dimethyl-1,2,3,4,8,9-hexahydropyrido[4′,3′:3,4]pyrazolo[1,5-a]pyrazin-10(7H)-one], for which, in series [1], the “HLM Metabolism t1/2” value was 1.18 h. Moreover, in series [2], a half-maximal response (EC50) required 0.01 µM. In series [3], the cytotoxic concentration (CC50) is more than 50 µM.
